How the values were obtained:
Assay in all cases: Kinase panel profiling at 1 µmol/L (mobility shift assay, Carna)
Type in all cases: biochemical
Settings in all cases: 1 µmol/L of BTK inhibitor
[1] = target: T1, CaMK1δ (Homo sapiens, UniProt Q8IU85)
T1 construct: purchased Carna Biosciences

[2] = target: T2, EPHB3 (Homo sapiens, UniProt P54753)
T2 construct: purchased Carna Biosciences
T2 sequence (P54753 34-998): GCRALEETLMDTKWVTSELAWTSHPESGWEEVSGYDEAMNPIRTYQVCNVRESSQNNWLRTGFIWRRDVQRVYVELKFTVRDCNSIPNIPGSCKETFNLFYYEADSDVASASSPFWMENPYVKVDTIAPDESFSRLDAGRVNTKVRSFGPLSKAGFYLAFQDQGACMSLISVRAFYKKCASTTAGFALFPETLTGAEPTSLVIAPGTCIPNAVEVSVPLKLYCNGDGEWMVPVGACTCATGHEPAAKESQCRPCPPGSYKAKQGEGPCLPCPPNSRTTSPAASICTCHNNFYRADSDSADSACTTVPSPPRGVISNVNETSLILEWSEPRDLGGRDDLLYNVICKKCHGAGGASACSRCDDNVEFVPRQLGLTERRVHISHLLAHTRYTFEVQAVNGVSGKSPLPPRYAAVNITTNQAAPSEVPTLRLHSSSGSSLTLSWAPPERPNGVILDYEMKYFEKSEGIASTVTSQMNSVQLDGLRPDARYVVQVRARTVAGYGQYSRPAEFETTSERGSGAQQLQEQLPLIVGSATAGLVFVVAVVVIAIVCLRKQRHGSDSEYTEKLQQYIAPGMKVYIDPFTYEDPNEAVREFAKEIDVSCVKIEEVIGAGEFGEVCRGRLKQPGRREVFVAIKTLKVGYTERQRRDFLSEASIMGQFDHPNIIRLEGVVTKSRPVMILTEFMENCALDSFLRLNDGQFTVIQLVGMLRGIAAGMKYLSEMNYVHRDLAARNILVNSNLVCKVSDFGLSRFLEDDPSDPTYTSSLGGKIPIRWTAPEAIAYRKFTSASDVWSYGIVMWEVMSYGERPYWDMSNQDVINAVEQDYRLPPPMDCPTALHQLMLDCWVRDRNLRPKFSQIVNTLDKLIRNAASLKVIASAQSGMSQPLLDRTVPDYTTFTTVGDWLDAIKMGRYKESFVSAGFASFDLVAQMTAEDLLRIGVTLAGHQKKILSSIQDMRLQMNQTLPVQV

[3] = target: T3, IKKε (Homo sapiens, UniProt Q14164)
T3 construct: purchased Carna Biosciences
T3 sequence (Q14164 1-716): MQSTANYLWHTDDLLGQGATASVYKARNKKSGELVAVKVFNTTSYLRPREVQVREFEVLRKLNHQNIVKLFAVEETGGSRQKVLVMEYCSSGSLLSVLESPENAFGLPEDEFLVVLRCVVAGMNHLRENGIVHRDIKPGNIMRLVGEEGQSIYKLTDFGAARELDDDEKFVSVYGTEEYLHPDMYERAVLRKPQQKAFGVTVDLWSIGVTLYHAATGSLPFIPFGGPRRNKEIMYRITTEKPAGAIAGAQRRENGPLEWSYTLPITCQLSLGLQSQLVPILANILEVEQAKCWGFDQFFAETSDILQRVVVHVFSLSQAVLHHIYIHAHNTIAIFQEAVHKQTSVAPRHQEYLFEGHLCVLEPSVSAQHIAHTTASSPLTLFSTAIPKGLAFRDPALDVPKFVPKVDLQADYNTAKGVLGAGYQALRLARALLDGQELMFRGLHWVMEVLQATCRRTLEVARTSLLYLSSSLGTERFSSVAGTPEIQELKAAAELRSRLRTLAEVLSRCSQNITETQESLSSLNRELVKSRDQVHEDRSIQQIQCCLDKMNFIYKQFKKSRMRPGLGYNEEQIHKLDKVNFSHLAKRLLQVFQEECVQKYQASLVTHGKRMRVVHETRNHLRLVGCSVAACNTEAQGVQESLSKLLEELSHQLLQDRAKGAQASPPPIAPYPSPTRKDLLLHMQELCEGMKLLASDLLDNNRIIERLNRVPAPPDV

[4] = target: T4, CK1γ1 (Homo sapiens, UniProt Q9HCP0)
T4 construct: purchased Carna Biosciences
T4 sequence (Q9HCP0 whole entry): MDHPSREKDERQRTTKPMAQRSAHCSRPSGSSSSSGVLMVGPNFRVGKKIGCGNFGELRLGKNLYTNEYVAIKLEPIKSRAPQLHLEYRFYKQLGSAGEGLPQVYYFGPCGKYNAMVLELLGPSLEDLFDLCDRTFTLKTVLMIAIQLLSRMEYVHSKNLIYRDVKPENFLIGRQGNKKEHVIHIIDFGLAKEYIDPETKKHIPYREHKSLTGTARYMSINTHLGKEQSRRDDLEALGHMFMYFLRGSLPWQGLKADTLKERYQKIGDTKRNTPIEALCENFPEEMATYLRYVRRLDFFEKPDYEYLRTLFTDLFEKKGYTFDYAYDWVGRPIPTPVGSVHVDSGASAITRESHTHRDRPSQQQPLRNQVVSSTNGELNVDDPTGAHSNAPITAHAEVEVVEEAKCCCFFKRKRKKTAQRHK

[5] = target: T5, PLK3 (Homo sapiens, UniProt Q9H4B4)
T5 construct: purchased Carna Biosciences
T5 sequence (Q9H4B4 whole entry): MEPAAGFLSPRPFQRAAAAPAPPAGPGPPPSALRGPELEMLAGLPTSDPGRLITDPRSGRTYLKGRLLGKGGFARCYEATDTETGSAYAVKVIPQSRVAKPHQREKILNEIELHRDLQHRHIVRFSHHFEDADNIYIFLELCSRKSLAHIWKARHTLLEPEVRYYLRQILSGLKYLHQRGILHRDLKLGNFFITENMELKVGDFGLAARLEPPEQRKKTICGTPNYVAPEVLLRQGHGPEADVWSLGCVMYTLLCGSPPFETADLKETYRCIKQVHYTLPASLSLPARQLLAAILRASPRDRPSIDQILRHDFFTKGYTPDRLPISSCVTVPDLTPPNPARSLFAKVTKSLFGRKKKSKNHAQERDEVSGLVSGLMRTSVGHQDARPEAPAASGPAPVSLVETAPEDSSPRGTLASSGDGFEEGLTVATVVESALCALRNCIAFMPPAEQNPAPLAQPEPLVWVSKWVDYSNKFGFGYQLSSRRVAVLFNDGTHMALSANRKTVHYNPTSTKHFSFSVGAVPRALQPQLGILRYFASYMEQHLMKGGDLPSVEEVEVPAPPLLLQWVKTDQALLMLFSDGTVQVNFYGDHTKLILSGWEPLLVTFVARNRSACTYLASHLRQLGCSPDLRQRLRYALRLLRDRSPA

[6] = target: T6, AurC (Homo sapiens, UniProt Q9UQB9)
T6 construct: purchased Carna Biosciences
T6 sequence (Q9UQB9 1-309): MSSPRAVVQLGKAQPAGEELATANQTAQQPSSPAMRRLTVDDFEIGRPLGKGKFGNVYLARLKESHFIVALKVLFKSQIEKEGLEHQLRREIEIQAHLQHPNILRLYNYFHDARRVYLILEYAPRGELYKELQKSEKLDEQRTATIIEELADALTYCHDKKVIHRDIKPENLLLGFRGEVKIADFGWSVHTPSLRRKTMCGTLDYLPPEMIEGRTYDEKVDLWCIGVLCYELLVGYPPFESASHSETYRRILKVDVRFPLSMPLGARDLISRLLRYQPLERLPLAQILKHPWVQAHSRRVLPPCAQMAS

T1 sequence (Q8IU85 whole entry): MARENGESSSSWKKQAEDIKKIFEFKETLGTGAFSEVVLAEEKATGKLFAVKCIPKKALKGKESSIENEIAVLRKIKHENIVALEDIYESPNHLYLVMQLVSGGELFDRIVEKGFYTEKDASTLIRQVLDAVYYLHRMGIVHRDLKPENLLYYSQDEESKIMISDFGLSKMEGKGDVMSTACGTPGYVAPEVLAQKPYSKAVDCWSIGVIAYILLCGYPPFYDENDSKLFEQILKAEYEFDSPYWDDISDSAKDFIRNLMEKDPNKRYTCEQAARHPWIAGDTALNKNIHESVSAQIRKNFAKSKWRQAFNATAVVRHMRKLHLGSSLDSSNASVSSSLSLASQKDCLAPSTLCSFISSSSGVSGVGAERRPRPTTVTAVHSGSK

| SMILES | Percentage inhibition of kinase enzyme activity [1] [%] | Percentage inhibition of kinase enzyme activity [2] [%] | Percentage inhibition of kinase enzyme activity [3] [%] | Percentage inhibition of kinase enzyme activity [4] [%] | Percentage inhibition of kinase enzyme activity [5] [%] | Percentage inhibition of kinase enzyme activity [6] [%] |
| --- | --- | --- | --- | --- | --- | --- |
| CC#CC(=O)N1CCC[C@H]1c1nc(-c2ccc(C(=O)Nc3ccccn3)cc2)c2c(N)nccn12 [acalabrutinib] | -5.01 | 1.64 | 1.46 | 0.33 | 1.76 | 7.21 |
| C=CC(=O)N1CCC[C@@H](n2nc(-c3ccc(Oc4ccccc4)cc3)c3c(N)ncnc32)C1 [ibrutinib] | 4.85 | 2.93 | -0.70 | 3.68 | 1.53 | 6.95 |
| O=C(c1ccc(Oc2ccccc2)cc1Cl)c1c[nH]c2ncnc(N[C@@H]3CC[C@@H](CO)OC3)c12 [nemtabrutinib] | 9.32 | 73.92 | 11.64 | 0.57 | 5.13 | 65.10 |
| COc1ccc(F)cc1C(=O)NCc1ccc(-c2nn([C@@H](C)C(F)(F)F)c(N)c2C(N)=O)cc1 [pirtobrutinib] | 2.74 | 34.88 | 5.28 | 5.92 | -1.13 | 39.97 |
| C=CC(=O)N1CCC([C@@H]2CCNc3c(C(N)=O)c(-c4ccc(Oc5ccccc5)cc4)nn32)CC1 [zanubrutinib] | – | -2.82 | – | – | – | -0.85 |

From publication PMC12586182 (Frontiers in Oncology, 2025)
